Key:
[1] = Mannitol particle size, initially and after mixing with VP10 hydrogel solution; type: physicochemical
Source text: All chemicals were purchased from Sigma-Aldrich unless otherwise stated. N-isopropylacrylamide (NIPAAm) was purified by recrystallization from hexane and vacuum-dried. 2-Hydroxyethyl methacrylate (HEMA) was purified by vacuum distillation. Vinylpyrrolidone (VP), lactide, benzoyl peroxide (BPO), sodium methoxide (NaOCH3), methacryloyl chloride, methacrylic acid (MAA) and other solvents were used as received. D-mannitol particles were sieved to obtain the portion between 170 and 230 meshes.

SMCs = experiment: Cytotoxicity and proliferation of SMCs (mitochondrial activity assay); type: cell-based; details: dissolved mannitol

OC[C@@H](O)[C@@H](O)[C@H](O)[C@H](O)CO [mannitol, D-mannitol]
particle size change after mixing with hydrogel solution ([1]; mixed with VP10 hydrogel solution for 10 min): did not decrease significantly
initial size of sieved mannitol particles ([1]; sieved, 170-230 mesh): 68.0 μm
concentration up to which no cytotoxicity was shown (SMCs): up to 100 mM

From patent publication US11389569B2, “Biodegradable, porous, thermally responsive injectable hydrogel as soft tissue defect filler” (University of Pittsburgh—Of the Commonwealth System of …, priority 2017, dated 2022)
